Test results: US20230303540A1 (Merck Sharp & Dohme LLC, priority 2020, published 2023)

Molecular target: GST-tagged truncated human mutant G2019S LRRK2 (Homo sapiens, UniProt Q5S007, G2019S)
Assay: LRRK2 G2019S Km ATP LanthaScreen assay
Format: biochemical
Settings: 134 μM ATP (Km ATP), LRRKtide substrate, mean IC50 values; read-out: LRRK2 pIC50 (converted)
In short: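 Compound preincubated 15 min at room temperature with enzyme in pH 8.5 Tris buffer (10 mM MgCl2). Then a 90 min reaction at ambient temperature with 134 μM (Km) ATP and fluorescein-LRRKtide. EDTA stop, Tb anti-phospho antibody TR-FRET; […]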

Structure (SMILES) | IC50
CC(C)(O)Cn1ncc(Nc2ncc3cc(Cl)c(N4C[C@H]5CC[C@@H](C4)[C@@]5(C)O)cc3n2)c1Cl [Ex-3.30, (8-syn)-3-(6-chloro-2-{[5-chloro-1-(2-hydroxy-2-methylpropyl)-1H-pyrazol-4-yl]amino}quinazolin-7-yl)-8-methyl-3-azabicyclo[3.2.1] octan-8-ol] | 5.09 nM
CN1CCN(c2cc3nc(Nc4cnn(C)c4Cl)ncc3cc2Cl)CC1 [Ex-11.1, 6-Chloro-N-(5-chloro-1-methyl-1H-pyrazol-4-yl)-7-(4-methylpiperazin-1-yl)quinazolin-2-amine] | 11.7 nM
O[C@@H]1COC[C@@H]1N1CCN(c2cc3nc(Nc4cnn(C5CC5)c4Cl)ncc3cc2Cl)CC1 (single isomer, unassigned) [Ex-3.51, (3R,4R) or (3S,4S) 4-(4-{6-chloro-2-[(5-chloro-1-cyclopropyl-1H-pyrazol-4-yl)amino]quinazolin-7-yl}piperazin-1-yl)oxolan-3-ol] | 16.3 nM
Cn1ncc(Nc2ncc3cc(Cl)c(N4CCN(C5(C)COCC5O)CC4)cc3n2)c1Cl (single isomer, unassigned) [Ex-6.36, (3S,4S) or (3R,4R) 4-[4-{6-chloro-2-[(5-chloro-1-methyl-1H-pyrazol-4-yl)amino]quinazolin-7-yl}piperazin-1-yl)-4-methyloxolan-3-ol] | 11.2 nM
Cc1c(Nc2ncc3cc(Cl)c(N4CCN(C5COCC5O)CC4)nc3n2)cnn1C1CC1 (single isomer, unassigned) [Ex-16.4, (3S,4S) or (3R,4R)-4-(4-{6-chloro-2-[(1-cyclopropyl-5-methyl-1H-pyrazol-4-yl)amino]pyrido[2,3-d]pyrimidin-7-yl}piperazin-1-yl)oxolan-3-ol] | 83.8 nM
Cc1cc(Nc2ncc3cc(Cl)c(N4CCC(C)(O)CC4)cc3n2)sn1 [Ex-6.8, 1-{6-chloro-2-[(3-methyl-1,2-thiazol-5-yl)amino]quinazolin-7-yl}-4-methylpiperidin-4-ol] | 16.3 nM
C[C@H]1COC(=O)N1c1ccc2cnc(Nc3cnn(CC(F)(F)F)c3)nc2c1 [Ex-7.21, (4S)-4-methyl-3-(2-{[1-(2,2,2-trifluoroethyl)-1H-pyrazol-4-yl]amino}quinazolin-7-yl)-1,3-oxazolidin-2-one] | 0.625 nM
Clc1cc2cnc(Nc3cnn(C4CC4)c3Cl)nc2cc1N1CCN(C2COC2)CC1 [Ex-1.24, 6-chloro-N-(5-chloro-1-cyclopropyl-1H-pyrazol-4-yl)-7-[4-(oxetan-3-yl)piperazin-1-yl]quinazolin-2-amine] | 2.59 nM
CN1CCN(c2cc3nc(Nc4cnn(C5(C)CC5)c4Cl)ncc3cc2Cl)CC1=O [Ex-4.44, 4-(6-chloro-2-{[5-chloro-1-(1-methylcyclopropyl)-1H-pyrazol-4-yl]amino}quinazolin-7-yl)-1-methylpiperazin-2-one] | 20 nM
CC1(N2CCN(c3cc4nc(Nc5cnn(C6CC6(F)F)c5Cl)ncc4cc3Cl)CC2)COC1 (single isomer, unassigned) [Ex-4.60, 6-chloro-N-[5-chloro-1-(2,2-(R) or (S)difluorocyclopropyl)-1H-pyrazol-4-yl]-7-[4-(3-methyloxetan-3-yl)piperazin-1-yl]quinazolin-2-amine] | 3.24 nM
OC1CN(c2cc3nc(Nc4cnn(CC(F)F)c4Cl)ncc3cc2Cl)C1 [Ex-1.18, 1-(6-chloro-2-{[5-chloro-1-(2,2-difluoroethyl)-1H-pyrazol-4-yl]amino}quinazolin-7-yl)azetidin-3-ol] | 18.9 nM
Cc1c(Nc2ncc3cc(Cl)c(N4CCN(C5COCC5O)CC4)nc3n2)cnn1C1CC1 (single isomer, unassigned) [Ex-16.3, (3S,4S) or (3R,4R)-4-(4-{6-chloro-2-[(1-cyclopropyl-5-methyl-1H-pyrazol-4-yl)amino]pyrido[2,3-d]pyrimidin-7-yl}piperazin-1-yl)oxolan-3-ol] | 4.55 nM
Cc1cc2cnc(Nc3cnn(C4CC4)c3Cl)nc2cc1N1CCN(C2(C)COC2)CC1 [Ex-5.10, N-(5-chloro-1-cyclopropyl-1H-pyrazol-4-yl)-6-methyl-7-[4-(3-methyloxetan-3-yl)piperazin-1-yl]quinazolin-2-amine] | 5.67 nM
N#CCCN1CCN(c2cc3nc(Nc4cnn(C5CC5)c4Cl)ncc3cc2Cl)CC1 [Ex-1.29, 3-(4-{6-chloro-2-[(5-chloro-1-cyclopropyl-1H-pyrazol-4-yl)amino]quinazolin-7-yl}piperazin-1-yl)propanenitrile] | 2.78 nM
Cc1c(Nc2ncc3cc(Cl)c(N4CCC(C)(O)C(C)C4)cc3n2)cnn1C1CC1 (single isomer, unassigned) [Ex-3.49, (3R,4R) or (3S,4S) or (3R,4S) or (3S,4R) 1-{6-chloro-2-[(1-cyclopropyl-5-methyl-1H-pyrazol-4-yl)amino]quinazolin-7-yl}-3,4-dimethylpiperidin-4-ol] | 1.33 nM
CC1(n2ncc(Nc3ncc4cc(Cl)c(N5CCN(C6COC6)CC5)cc4n3)c2Cl)CC1 [Ex-3.22, 6-chloro-N-[5-chloro-1-(1-methylcyclopropyl)-1H-pyrazol-4-yl]-7-[4-(oxetan-3-yl)piperazin-1-yl]quinazolin-2-amine] | 0.954 nM

Structure (SMILES) | IC50
CCn1ncc(Nc2ncc3cc(Cl)c(N4CCN(C5(C)COC5)CC4)cc3n2)c1Cl [Ex-4.68, 6-chloro-N-(5-chloro-1-ethyl-1H-pyrazol-4-yl)-7-[4-(3-methyloxetan-3-yl)piperazin-1-yl]quinazolin-2-amine] | 3.38 nM
CC1(N2CCN(c3cc4nc(Nc5cnn(CC(F)(F)F)c5)ncc4cc3Cl)CC2)COC1 [Ex-4.19, 6-chloro-7-[4-(3-methyloxetan-3-yl)piperazin-1-yl]-N-[1-(2,2,2-trifluoroethyl)-1H-pyrazol-4-yl]quinazolin-2-amine] | 3.03 nM
Cc1c(Nc2ncc3cc(Cl)c(N4CCN(C5(C)COCC5O)CC4)cc3n2)cnn1C (single isomer, unassigned) [Ex-3.43, (3R,4R) or (3S,4S) 4-(4-{6-chloro-2-[(1,5-dimethyl-1H-pyrazol-4-yl)amino]quinazolin-7-yl}piperazin-1-yl)-4-methyloxolan-3-ol] | 0.438 nM
Cc1cc2cnc(Nc3cnn(C4CC4)c3Cl)nc2cc1N1CCN(C2(C)COCC2O)CC1 (single isomer, unassigned) [Ex-5.6, (3S,4S) or (3R,4R) 4-(4-(2-((5-chloro-1-cyclopropyl-1H-pyrazol-4-yl)amino)-6-methylquinazolin-7-yl)piperazin-1-yl)-4-methyltetrahydrofuran-3-ol] | 0.403 nM
OC1COCC1N1CCN(c2cc3nc(Nc4cnn(C5CC5(F)F)c4Cl)ncc3cc2Cl)CC1 (single isomer, unassigned) [Ex-6.30, (3S,4S) or (3R,4R) 4-[4-(6-chloro-2-{[5-chloro-1-(2,2-(R) or (S)difluorocyclopropyl)-1H-pyrazol-4-yl]amino}quinazolin-7-yl)piperazin-1-yl]oxolan-3-ol] | 0.9 nM
CC1(N2CCN(c3cc4nc(Nc5ccn(CC(F)(F)F)n5)ncc4cc3Cl)CC2)COC1 [Ex-4.63, 6-chloro-7-[4-(3-methyloxetan-3-yl)piperazin-1-yl]-N-[1-(2,2,2-trifluoroethyl)-1H-pyrazol-3-yl]quinazolin-2-amine] | 28.3 nM
COC1CCC1n1ncc(Nc2ncc3cc(Cl)c(N4CCC(C)(O)CC4)cc3n2)c1C (single isomer, unassigned) [Ex-6.17, 1-[6-chloro-2-({1-[(1R,2S) or (1S,2R)-2-methoxycyclobutyl]-5-methyl-1H-pyrazol-4-yl}amino)quinazolin-7-yl]-4-methylpiperidin-4-ol] | 10.5 nM
CC1CN(C2COCC2O)CCN1c1cc2nc(Nc3cnn(C4CC4)c3Cl)ncc2cc1Cl (single isomer, unassigned) [Ex-12.8, (3S,4S) or (3R, 4R)-4-((R) or (S)-4-(6-chloro-2-((5-chloro-1-cyclopropyl-1H-pyrazol-4-yl)amino)quinazolin-7-yl)-3-methylpiperazin-1-yl)tetrahydrofuran-3-ol] | 0.088 nM
OC[C@@H]1[C@H]2CN(c3cc4nc(Nc5cnn(CC(F)F)c5Cl)ncc4cc3Cl)C[C@@H]12 [Ex-1.19, [(1R,5S,6R)-3-(6-chloro-2-{[5-chloro-1-(2,2-difluoroethyl)-1H-pyrazol-4-yl]amino}quinazolin-7-yl)-3-azabicyclo[3.1.0]hexan-6-yl]methanol] | 4.87 nM
Clc1cc2cnc(Nc3cnn(C4CC4)c3Cl)nc2cc1N1CCC(N2CCC2)CC1 [Ex-1.28, 7-[4-(azetidin-1-yl)piperidin-1-yl]-6-chloro-N-(5-chloro-1-cyclopropyl-1H-pyrazol-4-yl)quinazolin-2-amine] | 3.31 nM
CCn1ncc(Nc2ncc3ccc(N4CCC4C)cc3n2)c1C (single isomer, unassigned) [Ex-1.10, (S) or (R) N-(1-ethyl-5-methyl-1H-pyrazol-4-yl)-7-(2-methylazetidin-1-yl)quinazolin-2-amine] | 13.3 nM
CC1CN(c2cc3nc(Nc4cnn(C5CC5)c4Cl)ncc3cc2Cl)CCN1CC(C)(C)O (stereo not shown) [Ex-1.32, 1-(4-{6-chloro-2-[(5-chloro-1-cyclopropyl-1H-pyrazol-4-yl)amino]quinazolin-7-yl}-2-methylpiperazin-1-yl)-2-methylpropan-2-ol] | 5.49 nM
Cc1cc2cnc(Nc3cnn(C4CC4(F)F)c3Cl)nc2cc1N1CCNCC1 (stereo not shown) [Ex-5.14, N-(5-chloro-1-(2,2-difluorocyclopropyl)-1H-pyrazol-4-yl)-6-methyl-7-(piperazin-1-yl)quinazolin-2-amine] | 11.6 nM
CN(C)c1cc2nc(Nc3cnn(C4CC4(F)F)c3Cl)ncc2cc1Cl (single isomer, unassigned) [Ex-3.42, (R) or (S) 6-chloro-N~2~-[5-chloro-1-(2,2-difluorocyclopropyl)-1H-pyrazol-4-yl]-N~7~,N~7~-dimethylquinazoline-2,7-diamine] | 7.37 nM
CO[C@H]1C[C@@H](n2ncc(Nc3ncc4cc(Cl)c(N5CCC(C)(O)CC5)cc4n3)c2C)C1 [Ex-6.14, 1-(6-chloro-2-{[1-(cis-3-methoxycyclobutyl)-5-methyl-1H-pyrazol-4-yl]amino}quinazolin-7-yl)-4-methylpiperidin-4-ol] | 1.65 nM
